According to the supplement of paper PMC10883282:
± gives the standard deviation of the averaged measurements.

Tests used:
Assay in all cases: relative viability vs DMSO control (72 h) (fraction); higher = more viable cells
G401 = system: G401
In short: (§1)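 Sarcoma cell lines in 384-well plates, seeded to reach 80–90% confluence, were given compound after 24 h and kept 72 h at 37 °C, 5% CO2, with 0.1% DMSO vehicle and a 5 µM positive control. Relative viability came from ATPLite as percent growth, averaged over up to triplicate wells. On the rescaled values, 1 equals full and 0 equals none.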

HS729 = system: HS729
In short: as §1

SYO-1 = system: SYO-1
In short: as §1

SW872 = system: SW872
In short: as §1

VA-ES-BJ = system: VA-ES-BJ
In short: as §1

A204 = system: A204
In short: as §1

SK-ES-1 = system: SK-ES-1
In short: as §1

SK-LMS-1 = system: SK-LMS-1
In short: as §1

SW684 = system: SW684
In short: as §1

MES-SA = system: MES-SA
In short: as §1

RD = system: RD
In short: as §1

KHOS-NP = system: KHOS-NP
In short: as §1

CO[C@H]1C[C@@H]2CC[C@@H](C)[C@@](O)(O2)C(=O)C(=O)N2CCCC[C@H]2C(=O)O[C@H]([C@H](C)C[C@@H]2CC[C@@H](OCCO)[C@H](OC)C2)CC(=O)[C@H](C)/C=C(\C)[C@@H](O)[C@@H](OC)C(=O)[C@H](C)C[C@H](C)/C=C/C=C/C=C/1C [Certican]
Settings | relative viability
A204, 0.00017 µM | 0.919 ± 0.038
A204, 0.00051 µM | 0.793 ± 0.043
A204, 0.00152 µM | 0.657 ± 0.068
A204, 0.00457 µM | 0.619 ± 0.097
A204, 0.01372 µM | 0.591 ± 0.057
A204, 0.04115 µM | 0.517 ± 0.048
A204, 0.1235 µM | 0.498 ± 0.05
A204, 0.3704 µM | 0.485 ± 0.053
A204, 1.111 µM | 0.487 ± 0.0049
A204, 3.333 µM | 0.45 ± 0.054
A204, 10 µM | 0.43 ± 0.03
G401, 0.00017 µM | 0.9112 ± 0.0077
G401, 0.00051 µM | 0.873 ± 0.013
G401, 0.00152 µM | 0.846 ± 0.044
G401, 0.00457 µM | 0.825 ± 0.057
G401, 0.01372 µM | 0.784 ± 0.099
G401, 0.04115 µM | 0.757 ± 0.063
G401, 0.1235 µM | 0.729 ± 0.015
G401, 0.3704 µM | 0.701 ± 0.0086
G401, 1.111 µM | 0.683 ± 0.013
G401, 3.333 µM | 0.668 ± 0.02
G401, 10 µM | 0.642 ± 0.0053
HS729, 0.00017 µM | 0.907 ± 0.081
HS729, 0.00051 µM | 0.943 ± 0.016
HS729, 0.00152 µM | 0.896 ± 0.027
HS729, 0.00457 µM | 0.835 ± 0.036
HS729, 0.01372 µM | 0.903 ± 0.058
HS729, 0.04115 µM | 0.829 ± 0.043
HS729, 0.1235 µM | 0.828 ± 0.032
HS729, 0.3704 µM | 0.808 ± 0.048
HS729, 1.111 µM | 0.821 ± 0.082
HS729, 3.333 µM | 0.828 ± 0.024
HS729, 10 µM | 0.891 ± 0.013
KHOS-NP, 0.00017 µM | 1.05 ± 0.022
KHOS-NP, 0.00051 µM | 1.07 ± 0.022
KHOS-NP, 0.00152 µM | 1.07 ± 0.051
KHOS-NP, 0.00457 µM | 1.05 ± 0.057
KHOS-NP, 0.01372 µM | 1.03 ± 0.05
KHOS-NP, 0.04115 µM | 1 ± 0.076
KHOS-NP, 0.1235 µM | 1.02 ± 0.079
KHOS-NP, 0.3704 µM | 1.04 ± 0.032
KHOS-NP, 1.111 µM | 1.03 ± 0.057
KHOS-NP, 3.333 µM | 1.02 ± 0.055
KHOS-NP, 10 µM | 0.824 ± 0.18
MES-SA, 0.00017 µM | 0.862 ± 0.053
MES-SA, 0.00051 µM | 0.803 ± 0.031
MES-SA, 0.00152 µM | 0.608 ± 0.021
MES-SA, 0.00457 µM | 0.489 ± 0.016
MES-SA, 0.01372 µM | 0.422 ± 0.012
MES-SA, 0.04115 µM | 0.398 ± 0.013
MES-SA, 0.1235 µM | 0.378 ± 0.011
MES-SA, 0.3704 µM | 0.373 ± 0.015
MES-SA, 1.111 µM | 0.377 ± 0.0085
MES-SA, 3.333 µM | 0.358 ± 0.0061
MES-SA, 10 µM | 0.332 ± 0.0052
RD, 0.00017 µM | 1.09 ± 0.046
RD, 0.00051 µM | 1.09 ± 0.059
RD, 0.00152 µM | 0.964 ± 0.078
RD, 0.00457 µM | 0.888 ± 0.045
RD, 0.01372 µM | 0.848 ± 0.013
RD, 0.04115 µM | 0.8231 ± 0.0035
RD, 0.1235 µM | 0.773 ± 0.032
RD, 0.3704 µM | 0.7358 ± 0.0052
RD, 1.111 µM | 0.73 ± 0.044
RD, 3.333 µM | 0.71 ± 0.071
RD, 10 µM | 0.657 ± 0.065
SK-ES-1, 0.00017 µM | 1 ± 0.034
SK-ES-1, 0.00051 µM | 1.01 ± 0.037
SK-ES-1, 0.00152 µM | 0.983 ± 0.022
SK-ES-1, 0.00457 µM | 0.774 ± 0.031
SK-ES-1, 0.01372 µM | 0.694 ± 0.028
SK-ES-1, 0.04115 µM | 0.648 ± 0.049
SK-ES-1, 0.1235 µM | 0.592 ± 0.036
SK-ES-1, 0.3704 µM | 0.55 ± 0.014
SK-ES-1, 1.111 µM | 0.552 ± 0.012
SK-ES-1, 3.333 µM | 0.533 ± 0.029
SK-ES-1, 10 µM | 0.499 ± 0.016
SK-LMS-1, 0.00017 µM | 1 ± 0.044
SK-LMS-1, 0.00051 µM | 0.894 ± 0.024
SK-LMS-1, 0.00152 µM | 0.759 ± 0.023
SK-LMS-1, 0.00457 µM | 0.661 ± 0.011
SK-LMS-1, 0.01372 µM | 0.631 ± 0.017
SK-LMS-1, 0.04115 µM | 0.571 ± 0.02
SK-LMS-1, 0.1235 µM | 0.549 ± 0.022
SK-LMS-1, 0.3704 µM | 0.572 ± 0.0069
SK-LMS-1, 1.111 µM | 0.564 ± 0.0098
SK-LMS-1, 3.333 µM | 0.5489 ± 0.00062
SK-LMS-1, 10 µM | 0.512 ± 0.012
SW684, 0.00017 µM | 1.08 ± 0.034
SW684, 0.00051 µM | 1.125 ± 0.0076
SW684, 0.00152 µM | 1.069 ± 0.0049
SW684, 0.00457 µM | 1.03 ± 0.023
SW684, 0.01372 µM | 0.914 ± 0.045
SW684, 0.04115 µM | 0.829 ± 0.012
SW684, 0.1235 µM | 0.844 ± 0.013
SW684, 0.3704 µM | 0.813 ± 0.019
SW684, 1.111 µM | 0.83 ± 0.018
SW684, 3.333 µM | 0.872 ± 0.04
SW684, 10 µM | 0.807 ± 0.049
SW872, 0.00017 µM | 0.922 ± 0.016
SW872, 0.00051 µM | 0.774 ± 0.011
SW872, 0.00152 µM | 0.6659 ± 0.0063
SW872, 0.00457 µM | 0.645 ± 0.038
SW872, 0.01372 µM | 0.611 ± 0.024
SW872, 0.04115 µM | 0.592 ± 0.024
SW872, 0.1235 µM | 0.574 ± 0.0089
SW872, 0.3704 µM | 0.561 ± 0.011
SW872, 1.111 µM | 0.567 ± 0.0091
SW872, 3.333 µM | 0.584 ± 0.025
SW872, 10 µM | 0.584 ± 0.015
SYO-1, 0.00017 µM | 0.904 ± 0.032
SYO-1, 0.00051 µM | 0.876 ± 0.052
SYO-1, 0.00152 µM | 0.852 ± 0.063
SYO-1, 0.00457 µM | 0.84 ± 0.062
SYO-1, 0.01372 µM | 0.808 ± 0.074
SYO-1, 0.04115 µM | 0.788 ± 0.08
SYO-1, 0.1235 µM | 0.755 ± 0.058
SYO-1, 0.3704 µM | 0.755 ± 0.058
SYO-1, 1.111 µM | 0.729 ± 0.041
SYO-1, 3.333 µM | 0.738 ± 0.037
SYO-1, 10 µM | 0.742 ± 0.03
VA-ES-BJ, 0.00017 µM | 0.934 ± 0.041
VA-ES-BJ, 0.00051 µM | 0.855 ± 0.044
VA-ES-BJ, 0.00152 µM | 0.643 ± 0.064
VA-ES-BJ, 0.00457 µM | 0.604 ± 0.016
VA-ES-BJ, 0.01372 µM | 0.529 ± 0.02
VA-ES-BJ, 0.04115 µM | 0.494 ± 0.022
VA-ES-BJ, 0.1235 µM | 0.482 ± 0.028
VA-ES-BJ, 0.3704 µM | 0.478 ± 0.014
VA-ES-BJ, 1.111 µM | 0.468 ± 0.024
VA-ES-BJ, 3.333 µM | 0.47 ± 0.012
VA-ES-BJ, 10 µM | 0.46 ± 0.019
